Experimental data from patent US6610483B1, “Methods for identifying cellular responses attributable to signaling molecule inhibition and inhibitors thereof” (priority 1999, dated 2003).

Experiments:
[1] = system: wild-type yeast cells with CDC28; assay: DNA chip array of gene transcripts in wild-type yeast cells exposed to the mutant inhibitor; format: cell-based; settings: 500 nM, change of 2 fold or more
Protocol: Yeast cells expressing a functionally silent, mutant form of the wild-type protein kinase CDC28, termed CDC28 F88G, were prepared by the methods of standard yeast genetics as described in “Guide to Yeast Genetics and Molecular Biology” (Methods in Enzymology, Vol.194) by Christine Guthrie, Gerald R. Fink (Editor) Vol 194 (February 1991) Academic Press. A selective inhibitor of the mutant kinase, with little effect on the wild-type kinase, was prepared and identified using the methods described in Application Serial No. 60/115,340. Using DNA chip array technology, the levels of 6100 gene transcripts were quantitated in mRNA isolated from yeast cells expressing either wild type or F88G (mutant) CDC28 protein kinase either untreated or treated for treated for 30 minutes or 120 minutes with 500 nanomolar (nM) 4-amino-1-(tert-butyl)-3-(1′-naphthylmethyl)pyrazolo[3,4-d]pyrimidine dissolved in DMSO (500) or simply DMSO (DMSO). A change is defined as 2 fold increase or decrease in a gene transcript that is present or absent only in a particular sample. Methods for measuring transcripts were those described in Wodicka L, Dong H, Mittmann M, Ho M H, Lockhart D J, Genome-wide expression monitoring in Saccharomyces cerevisiae, Nat. Biotechnol. (1997) 15:1359-67. […] Effects of the inhibitor were evaluated at 30 and 120 minutes. […]

mutant CDC28 F88G cells = assay: DNA chip array of gene transcripts in mutant CDC28 F88G yeast cells exposed to the mutant inhibitor; format: cell-based; settings: 500 nM
Protocol: Yeast cells expressing a functionally silent, mutant form of the wild-type protein kinase CDC28, termed CDC28 F88G, were prepared by the methods of standard yeast genetics as described in “Guide to Yeast Genetics and Molecular Biology” (Methods in Enzymology, Vol.194) by Christine Guthrie, Gerald R. Fink (Editor) Vol 194 (February 1991) Academic Press. A selective inhibitor of the mutant kinase, with little effect on the wild-type kinase, was prepared and identified using the methods described in Application Serial No. 60/115,340. Using DNA chip array technology, the levels of 6100 gene transcripts were quantitated in mRNA isolated from yeast cells expressing either wild type or F88G (mutant) CDC28 protein kinase either untreated or treated for treated for 30 minutes or 120 minutes with 500 nanomolar (nM) 4-amino-1-(tert-butyl)-3-(1′-naphthylmethyl)pyrazolo[3,4-d]pyrimidine dissolved in DMSO (500) or simply DMSO (DMSO). A change is defined as 2 fold increase or decrease in a gene transcript that is present or absent only in a particular sample. Methods for measuring transcripts were those described in Wodicka L, Dong H, Mittmann M, Ho M H, Lockhart D J, Genome-wide expression monitoring in Saccharomyces cerevisiae, Nat. Biotechnol. (1997) 15:1359-67. The results and comparisons among the gene transcripts are shown in FIGS. 1-4, with the identities of the particular gene transcripts listed in FIG. 5. Non-specific drug effects are the result of the exposure of the inhibitor to wild-type cells. The mutation effects are indicated by the alterations between the expression pattern between the mutant cells and the wild-type cells, both in the absence of inhibitor. The results of specific inhibition are shown by the differences between the mutant cells before and after exposure to the inhibitor, including increases and decreases. Effects of the inhibitor were evaluated at 30 and 120 minutes. These two time points were chosen based on the known time interval for yeast cell cycle progression which is about 90 minutes. Thus one time point shorter than the full cell cycle progression time (30 minutes) and one time point longer than […] (120 minutes) were chosen. The comparisons of results are shown in FIGS. 1-4, and the details of the particular transcripts altered in FIG. 5.

PDGFR = settings: cited from earlier work

Structure (SMILES): CC(C)(C)n1nc(Cc2cccc3ccccc23)c2c(N)ncnc21 [4-amino-1-(tert-butyl)-3-(1′-naphthylmethyl)pyrazolo[3,4-d]pyrimidine]
- genes altered (non-specific drug effects) ([1]; 30 minute exposure): 7 genes
- genes altered (non-specific drug effects) ([1]; 120 minute exposure): 3 genes
- genes altered (mutant CDC28 F88G cells; 30 minute exposure): 85 genes
- genes decreased more than two-fold (mutant CDC28 F88G cells; 30 minute exposure): 74 genes
- genes increased more than two-fold (mutant CDC28 F88G cells; 30 minute exposure): 11 genes
- genes altered (mutant CDC28 F88G cells; 120 minute exposure): 186 genes
- genes decreased (mutant CDC28 F88G cells; 120 minute exposure): 100 genes
- genes increased (mutant CDC28 F88G cells; 120 minute exposure): 86 genes
